Experimental data as given in ChEMBL document CHEMBL3352542, “Synthesis, biological evaluation and molecular modeling study of 2-(1,3,4-thiadiazolyl-thio and 4-methyl-thiazolyl-thio)-quinazolin-4-ones as a new class of DHFR inhibitors” (Bioorg Med Chem Lett, 2014).
Activity calls are given as the source filed them. The calls are words filed in the database; no cut-off is given here.

What was measured:
[1] = target: T1, Dihydrofolate reductase (Bos taurus, UniProt P00376); test: Inhibition of bovine liver DHFR
T1 sequence (P00376 whole entry): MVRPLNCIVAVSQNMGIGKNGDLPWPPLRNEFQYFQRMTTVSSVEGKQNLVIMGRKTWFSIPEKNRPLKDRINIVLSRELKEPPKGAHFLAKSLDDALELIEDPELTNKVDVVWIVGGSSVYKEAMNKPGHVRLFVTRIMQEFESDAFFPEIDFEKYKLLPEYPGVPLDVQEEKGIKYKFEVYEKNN

[2] = test system: Staphylococcus aureus; test: Antimicrobial activity against Staphylococcus aureus assessed as inhibition zone at 200 ug/disk after 24 hrs by disc-diffusion method; type: functional; settings: read-out: IZ
[3] = test system: Bacillus subtilis; test: Antimicrobial activity against Bacillus subtilis assessed as inhibition zone at 200 ug/disk after 24 hrs by disc-diffusion method; type: functional; settings: read-out: IZ
[4] = test system: Escherichia coli; test: Antimicrobial activity against Escherichia coli assessed as inhibition zone at 200 ug/disk after 24 hrs by disc-diffusion method; type: functional; settings: read-out: IZ
[5] = test system: Pseudomonas aeruginosa; test: Antimicrobial activity against Pseudomonas aeruginosa assessed as inhibition zone at 200 ug/disk after 24 hrs by disc-diffusion method; type: functional; settings: read-out: IZ
[6] = test system: Candida albicans; test: Antimicrobial activity against Candida albicans assessed as inhibition zone at 200 ug/disk after 24 hrs by disc-diffusion method; type: functional; settings: read-out: IZ
[7] = test system: Staphylococcus aureus; test: Antimicrobial activity against Staphylococcus aureus assessed as inhibition of visible growth after 24 hrs by disc-diffusion method; type: functional, organism-based
[8] = test system: Bacillus subtilis; test: Antimicrobial activity against Bacillus subtilis assessed as inhibition of visible growth after 24 hrs by disc-diffusion method; type: functional, organism-based
[9] = test system: CCRF-CEM; test: Growth inhibition of human CCRF-CEM cells at 10 uM after 48 hrs; type: functional; settings: read-out: GI
[10] = test system: K562; test: Growth inhibition of human K562 cells at 10 uM after 48 hrs; type: functional; settings: K562, 48 h, read-out: GI
[11] = Growth inhibition of human MOLT4 cells at 10 uM after 48 hrs; type: functional; settings: MOLT-4, 48 h, read-out: GI
[12] = Growth inhibition of human RPMI8226 cells at 10 uM after 48 hrs; type: functional; settings: RPMI-8226, 48 h, read-out: GI
[13] = test system: SR; test: Growth inhibition of human SR cells at 10 uM after 48 hrs; type: functional; settings: read-out: GI
[14] = test system: A549; test: Growth inhibition of human A549 cells at 10 uM after 48 hrs; type: functional; settings: A549, 48 h, read-out: GI
[15] = Growth inhibition of human HOP92 cells at 10 uM after 48 hrs; type: functional; settings: HOP-92, 48 h, read-out: GI
[16] = test system: NCI-H226; test: Growth inhibition of human NCI-H226 cells at 10 uM after 48 hrs; type: functional; settings: NCI-H226, 48 h, read-out: GI
[17] = test system: NCI-H23; test: Growth inhibition of human NCI-H23 cells at 10 uM after 48 hrs; type: functional; settings: NCI-H23, 48 h, read-out: GI
[18] = Growth inhibition of human HCT116 cells at 10 uM after 48 hrs; type: functional; settings: HCT-116, 48 h, read-out: GI
[19] = Growth inhibition of human HCT15 cells at 10 uM after 48 hrs; type: functional; settings: HCT-15, 48 h, read-out: GI
[20] = test system: KM12; test: Growth inhibition of human KM12 cells at 10 uM after 48 hrs; type: functional; settings: KM12, 48 h, read-out: GI
[21] = test system: SF-268; test: Growth inhibition of human SF268 cells at 10 uM after 48 hrs; type: functional; settings: SF-268, 48 h, read-out: GI
[22] = Growth inhibition of human SF295 cells at 10 uM after 48 hrs; type: functional; settings: SF-295, 48 h, read-out: GI
[23] = Growth inhibition of human SF539 cells at 10 uM after 48 hrs; type: functional; settings: SF-539, 48 h, read-out: GI
[24] = test system: SNB-75; test: Growth inhibition of human SNB75 cells at 10 uM after 48 hrs; type: functional; settings: SNB-75, 48 h, read-out: GI
[25] = test system: U-251; test: Growth inhibition of human U251 cells at 10 uM after 48 hrs; type: functional; settings: U-251, 48 h, read-out: GI
[26] = Growth inhibition of human LOXIMVI cells at 10 uM after 48 hrs; type: functional; settings: LOX IMVI, read-out: GI
[27] = test system: M14; test: Growth inhibition of human M14 cells at 10 uM after 48 hrs; type: functional; settings: M14, 48 h, read-out: GI
[28] = test system: SK-MEL-5; test: Growth inhibition of human SK-MEL-5 cells at 10 uM after 48 hrs; type: functional; settings: SK-MEL-5, 48 h, read-out: GI
[29] = Growth inhibition of human UACC257 cells at 10 uM after 48 hrs; type: functional; settings: UACC-257, 48 h, read-out: GI
[30] = Growth inhibition of human UACC62 cells at 10 uM after 48 hrs; type: functional; settings: UACC-62, 48 h, read-out: GI
[31] = Growth inhibition of human OVCAR3 cells at 10 uM after 48 hrs; type: functional; settings: OVCAR-3, 48 h, read-out: GI
[32] = Growth inhibition of human OVCAR4 cells at 10 uM after 48 hrs; type: functional; settings: OVCAR-4, 48 h, read-out: GI
[33] = Growth inhibition of human OVCAR8 cells at 10 uM after 48 hrs; type: functional; settings: OVCAR-8, 48 h, read-out: GI
[34] = Growth inhibition of human NCI-ADR-RES cells at 10 uM after 48 hrs; type: functional; settings: read-out: GI
[35] = test system: A498; test: Growth inhibition of human A498 cells at 10 uM after 48 hrs; type: functional; settings: A498, 48 h, read-out: GI
[36] = test system: ACHN; test: Growth inhibition of human ACHN cells at 10 uM after 48 hrs; type: functional; settings: read-out: GI
[37] = test system: CAKI-1; test: Growth inhibition of human CAKI-1 cells at 10 uM after 48 hrs; type: functional; settings: CAKI-1, 48 h, read-out: GI
[38] = Growth inhibition of human RXF393 cells at 10 uM after 48 hrs; type: functional; settings: RXF 393, 48 h, read-out: GI
[39] = Growth inhibition of human UO31 cells at 10 uM after 48 hrs; type: functional; settings: UO-31, 48 h, read-out: GI
[40] = Growth inhibition of human PC3 cells at 10 uM after 48 hrs; type: functional; settings: PC-3, 48 h, read-out: GI
[41] = test system: MCF7; test: Growth inhibition of human MCF7 cells at 10 uM after 48 hrs; type: functional; settings: MCF7, 48 h, read-out: GI
[42] = test system: MDA-MB-231; test: Growth inhibition of human MDA-MB-231 cells at 10 uM after 48 hrs; type: functional; settings: MDA-MB-231, 48 h, read-out: GI
[43] = Growth inhibition of human Hs 578T cells at 10 uM after 48 hrs; type: functional; settings: read-out: GI
[44] = test system: T47D; test: Growth inhibition of human T47D cells at 10 uM after 48 hrs; type: functional; settings: read-out: GI
[45] = test system: MDA-MB-468; test: Growth inhibition of human MDA-MB-468 cells at 10 uM after 48 hrs; type: functional; settings: MDA-MB-468, 48 h, read-out: GI

Cc1ccc2nc(Sc3sc(N)nc3C)n(Cc3ccccc3)c(=O)c2c1
IC50 [1]: 5 µM
zone of inhibition at 200 µg/disc [2]: 18 mm
zone of inhibition at 200 µg/disc [3]: 21 mm
zone of inhibition at 200 µg/disc [4]: 8 mm
zone of inhibition at 200 µg/disc [5]: 8 mm
zone of inhibition at 200 µg/disc [6]: 12 mm
Activity [7]: Active
Activity [8]: Active
inhibition of growth at 10 µM [9]: 14.9%
inhibition of growth at 10 µM [10]: 17.4%
inhibition of growth at 10 µM [11]: 34.2%
inhibition of growth at 10 µM [12]: 28.1%
inhibition of growth at 10 µM [13]: 19%
inhibition of growth at 10 µM [14]: 22.1%
inhibition of growth at 10 µM [15]: 50.2%
inhibition of growth at 10 µM [16]: 22.7%
inhibition of growth at 10 µM [17]: 19.2%
inhibition of growth at 10 µM [18]: 20.7%
inhibition of growth at 10 µM [19]: 13.5%
inhibition of growth at 10 µM [20]: 18.8%
inhibition of growth at 10 µM [21]: 10.8%
inhibition of growth at 10 µM [22]: 21.9%
inhibition of growth at 10 µM [23]: 15.1%
inhibition of growth at 10 µM [24]: 22.7%
inhibition of growth at 10 µM [25]: 12.2%
inhibition of growth at 10 µM [26]: 19.5%
inhibition of growth at 10 µM [27]: 10.3%
inhibition of growth at 10 µM [28]: 25.8%
inhibition of growth at 10 µM [29]: 11.6%
inhibition of growth at 10 µM [30]: 22.8%
inhibition of growth at 10 µM [31]: 19.2%
inhibition of growth at 10 µM [32]: 18.7%
inhibition of growth at 10 µM [33]: 16%
inhibition of growth at 10 µM [34]: 20.3%
inhibition of growth at 10 µM [35]: 21.9%
inhibition of growth at 10 µM [36]: 19.8%
inhibition of growth at 10 µM [37]: 13.7%
inhibition of growth at 10 µM [38]: 17.8%
inhibition of growth at 10 µM [39]: 35.5%
inhibition of growth at 10 µM [40]: 34.5%
inhibition of growth at 10 µM [41]: 10.7%
inhibition of growth at 10 µM [42]: 14.2%
inhibition of growth at 10 µM [43]: 19.4%
inhibition of growth at 10 µM [44]: 23.9%
inhibition of growth at 10 µM [45]: 30.1%
